This is an account of results in ChEMBL document CHEMBL3414464, “Design, synthesis, and evaluation of NO-donor containing carbonic anhydrase inhibitors to lower intraocular pressure” (J Med Chem, 2015).

≈ marks a conversion by molar mass, not a printed value.

The term solubility denotes the dissolved amount per volume that the medium holds.

Data set [1] is described as follows: physchem.
Description: Solubility of the compound
Data set [2] deals with Oryctolagus cuniculus. The experiment in a line: Reduction in intraocular pressure in pigmented male Dutch-belted rabbit assessed as intraocular pressure level at trough treated with 2% 2 x 25 uL topical dose of formulated compound in right eye and measured after 1 to 2 hrs by non-contact tonometry. It counts as functional.
Data set [3] is described as follows: Drug level in iris ciliary body of pigmented male Dutch-belted rabbit treated with 2 x 25 uL topical dose of formulated compound in each eye and measured 4 hrs post dose by LC-MS/MS method. As to conditions: in vivo, topical_or_ocular; call rule not given here. It is filed as ADME, tissue-based, Oryctolagus cuniculus.
Data set [4] in a line: Drug level in aqueous humor of pigmented male Dutch-belted rabbit treated with 2 x 25 uL topical dose of formulated compound in each eye and measured 4 hrs post dose by LC-MS/MS method. As to conditions: in vivo, topical_or_ocular. It is filed as ADME, tissue-based, Oryctolagus cuniculus.
The test system of data set [5] is Cynomolgus monkey. The experiment in a line: Reduction in intraocular pressure unilaterally lasered ocular hypertensive cynomolgus monkey treated with 2% 2 x 25 uL topical dose of formulated compound in right eye and measured after 2 hrs by ocular hypertension primate tonometry. It counts as functional, Macaca fascicularis.
The subject of data set [6] is Cynomolgus monkey. The experiment in a line: Reduction in intraocular pressure unilaterally lasered ocular hypertensive cynomolgus monkey treated with 1% 2 x 25 uL topical dose of formulated compound in right eye and measured after 2 hrs by ocular hypertension primate tonometry. It is filed as functional, Macaca fascicularis.
The nature of data set [7]: Drug level in iris ciliary body of pigmented male Dutch-belted rabbit assessed as compound formation treated with 2 x 25 uL topical dose of formulated (4S,6S)-4-Ethylamino-6-(3-nitrooxy-propyl)-7,7-dioxo-4,5,6,7-tetrahydro-7lambda6-thieno[2,3-b]thiopyran-2-sulfonic acid amide in each eye and measured 4 hrs post dose by LC-MS/MS method. As to conditions: in vivo, topical_or_ocular. It is filed as ADME, tissue-based, Oryctolagus cuniculus.

A short description of data set [8]: Drug level in aqueous humor of pigmented male Dutch-belted rabbit assessed as compound formation treated with 2 x 25 uL topical dose of formulated (4S,6S)-4-Ethylamino-6-(3-nitrooxy-propyl)-7,7-dioxo-4,5,6,7-tetrahydro-7lambda6-thieno[2,3-b]thiopyran-2-sulfonic acid amide in each eye and measured 4 hrs post dose by LC-MS/MS method. As to conditions: in vivo, topical_or_ocular. It is filed as ADME, tissue-based, Oryctolagus cuniculus.

Data set [9] in a line: Drug level in iris ciliary body of pigmented male Dutch-belted rabbit assessed as compound formation treated with 2 x 25 uL topical dose of formulated (R)-3-(4-(Ethylamino)-1,1-dioxido-6-sulfamoyl-3,4-dihydro-2Hthieno[3,2-e][1,2]thiazin-2-yl)propyl nitrate in each eye and measured 4 hrs post dose by LC-MS/MS method. It is filed as ADME, tissue-based, Oryctolagus cuniculus. As to conditions: in vivo, topical_or_ocular.

The nature of data set [10]: Drug level in aqueous humor of pigmented male Dutch-belted rabbit assessed as compound formation treated with 2 x 25 uL topical dose of formulated (R)-3-(4-(Ethylamino)-1,1-dioxido-6-sulfamoyl-3,4-dihydro-2Hthieno[3,2-e][1,2]thiazin-2-yl)propyl nitrate in each eye and measured 4 hrs post dose by LC-MS/MS method. It counts as ADME, tissue-based, Oryctolagus cuniculus. As to conditions: in vivo, topical_or_ocular.

In [1], `CCN[C@H]1C[C@H](CCCO[N+](=O)[O-])S(=O)(=O)c2sc(S(N)(=O)=O)cc21` showed a solubility of 11300 µg/mL (≈ 27.3 mM). The Activity in [2] is reported as 5 mmHg. Moreover, the Drug uptake entry in [3] and in data set [4] was “Active” throughout.

In [1], `CCN[C@H]1CN(CCCO[N+](=O)[O-])S(=O)(=O)c2sc(S(N)(=O)=O)cc21` registered a solubility of 2200 µg/mL (≈ 5.31 mM). For the same compound, the results for the Activity in [2] and in data set [5] were 5 mmHg and 10.5 mmHg, respectively. For the same compound, the Drug uptake entry in [3] and in data set [4] was “Active” throughout.

The compound `CCN[C@H]1CN(CCCOC)S(=O)(=O)c2sc(S(N)(=O)=O)cc21` [BRINZOLAMIDE] returned a solubility in data set [1] of 500 µg/mL (≈ 1.3 mM). The same compound registered an Activity in data set [6] of 2 mmHg.

Consider `CCN[C@H]1C[C@H](CCCO)S(=O)(=O)c2sc(S(N)(=O)=O)cc21`, for which the Drug metabolism entry in [7] and in [8] was “metabolite_detected” throughout.

As to `CCN[C@H]1CN(CCCO)S(=O)(=O)c2sc(S(N)(=O)=O)cc21`, the Drug metabolism result in data set [9] and in data set [10] was “metabolite_detected” each time.
